# Source: patent US20230285417A1, “FORMULATIONS OF 19-NOR C3,3-DISUBSTITUTED C21-N-PYRAZOLYL STEROID AND METHODS OF USE THEREOF” (priority 2020, published 2023)
# Tests used:
# Type in all cases: physicochemical
# [1] = Particle size distribution by laser diffraction (Malvern Mastersizer 2000); settings: for D10 / D50 / D90: lot of micronized Form C of Compound 1 used in capsules of Table 16
# Description: The particle size distribution of Compound 1 was measured using a laser diffraction method. A sample of Compound 1 was either dispersed in water or wetted and dispersed in 0.2% w/v Tween 80 in water to a final concentration spanning approximately 2.5 to 60 mg/mL. Using a Malvern Mastersizer 2000 with a Hydro 2000S sample dispersion unit the obscuration was adjusted to between 10 and 30%. The stir speed was adjusted to 2250-2500 rpm, pre-measurement delay to approximately 30 s, sample measurement time to around 10-15 s, background measurement time to around 10-15 s and the particle shape assumed to be irregular. The samples were at a concentration between 0.0032-0.0044% vol and had specific surface area between 1.65 and 2.10 m2/g, a surface weighted mean between 2.87 and 3.64 μm, and a volume weighed mean between 3.62 and 4.67 μm. The measurements were obtained using the Mie scattering model (material refractive index=1.520, dispersant refractive index=1.330, absorption=0.001 or 0.1) with normal sensitivity.
# Representative particle size distribution data for lots of un-micronized and micronized Form C of Compound 1 are shown in Table 7. In addition, representative particle size distribution for micronized Form A of Compound 1 is also included in Table 7. FIG. 4A, FIG. 4B and FIG. 4C also contain particle size distribution profiles for three representative lots of micronized Form C of Compound 1. FIG. 13A and FIG. 13B contain particle size distribution profiles for micronized and un-micronized Form C of Compound 1a. FIG. 14A and FIG. 14B contain particle size distribution profiles for micronized and un-micronized Form C of Compound 1b. FIG. 15A and FIG. 15B contain particle size distribution profiles for micronized and un-micronized Form C of Compound 1c. FIG. 16A and FIG. 16B contain particle size distribution profiles for micronized and un-micronized Form C of Compound 1d.
# [2] = Solubility of the compound of formula (I) in aqueous media (water, pH 1.2 simulated gastric fluid, FaSSIF)
# Text: (§1) The compound of formula (I) belongs in the high permeability, poor solubility drug classification (BCS 2) described in the Biopharmaceutics Classification System (BCS). In the improved widely accepted Developability Classification System (DCS) discussed by Butler and Dressman, the high permeability low solubility category is further divided into two classifications. Specifically, the ratio of the dose to the solubility of the drug in FaSSIF can be used to predict the extent of human absorption. Class 2a describes compounds that have good permeability and poor solubility with a smaller dose to solubility ratio. Class 2b describes compounds that have a higher dose to solubility ratio and likely will be incompletely absorbed unless the drug is formulated in an already solubilized form, and therefore might present a major challenge to the formulator. […] That is, even for a dose of 10 mg about only 1.2% of the dose of the drug may dissolve in a glass of water or FaSSIF. For Class 2b compounds the system predicts that particle reduction should have no impact on bioavailability. Martinez and Amidon offer: “In the case of solubility-limited absorption particle size exerts minimal effect on the fraction of drug absorbed. […]
# [3] = Biopharmaceutics Classification System (BCS) classification; settings: high permeability, poor solubility
# Text: as §1
# [4] = lot used in Composition 30, 8 kg blend batch, 20 mg dose strength
# [5] = lot used in Composition 30, 12 kg blend batch, 30 mg dose strength
# [6] = lot used in Composition 30, 34.7 kg blend batch, 20 mg dose strength
# [7] = lot used in Composition 30, 52 kg blend batch, 30 mg dose strength
compound,measurement,setting,value
C[C@@]1(O)CC[C@H]2[C@H](CC[C@@H]3[C@@H]2CC[C@]2(C)[C@@H](C(=O)Cn4cc(C#N)cn4)CC[C@@H]32)C1 [Lot B],D10,[1]; listed as B,1.9 μm
same,D50,[1]; listed as B,3.5 μm
same,D90,[1]; listed as B,6.6 μm
C[C@@]1(O)CC[C@H]2[C@H](CC[C@@H]3[C@@H]2CC[C@]2(C)[C@@H](C(=O)Cn4cc(C#N)cn4)CC[C@@H]32)C1 [Lot A],D10,[1]; listed as A,1.7 μm
same,D50,[1]; listed as A,3.3 μm
same,D90,[1]; listed as A,6.8 μm
C[C@@]1(O)CC[C@H]2[C@H](CC[C@@H]3[C@@H]2CC[C@]2(C)[C@@H](C(=O)Cn4cc(C#N)cn4)CC[C@@H]32)C1 [Lot C],D10,[1]; listed as C,2.1 μm
same,D50,[1]; listed as C,4.0 μm
same,D90,[1]; listed as C,7.7 μm
C[C@@]1(O)CC[C@H]2[C@H](CC[C@@H]3[C@@H]2CC[C@]2(C)[C@@H](C(=O)Cn4cc(C#N)cn4)CC[C@@H]32)C1 [Micronized Form C of Compound 1],Particle Size Distribution D10,[1]; [4],1.7
same,Particle Size Distribution D50,[1]; [4],3.2
same,Particle Size Distribution D90,[1]; [4],6.1
same,Particle Size Distribution D10,[1]; [5],1.7
same,Particle Size Distribution D50,[1]; [5],3.2
same,Particle Size Distribution D90,[1]; [5],6.1
same,Particle Size Distribution D10,[1]; [6],1.8
same,Particle Size Distribution D50,[1]; [6],3.3
same,Particle Size Distribution D90,[1]; [6],6.5
same,Particle Size Distribution D10,[1]; [7],2.1
same,Particle Size Distribution D50,[1]; [7],4.1
same,Particle Size Distribution D90,[1]; [7],8.0
"C[C@@]1(O)CC[C@H]2[C@H](CC[C@@H]3[C@@H]2CC[C@]2(C)[C@@H](C(=O)Cn4cc(C#N)cn4)CC[C@@H]32)C1 [Compound 1, 1-(2-((3R,5R,8R,9R,10S,13S,14S,17S)-3-hydroxy-3,13-dimethylhexadecahydro-1H-cyclopenta[a]phenanthren-17-yl)-2-oxoethyl)-1H-pyrazole-4-carbonitrile]",% of the dose that may dissolve in a glass of water or FaSSIF,[2]; 10 mg dose,~1.2%
same,solubility in aqueous media,"[2]; water, pH 1.2 simulated gastric fluid, FaSSIF",practically insoluble
same,"drug classification, Biopharmaceutics Classification System (BCS)",[3],BCS 2
